For eleven compounds, IC50 results are on record in patent US20250326767A1, “NOVEL BENZOTHIAZOLE DERIVATIVES” (CARNA BIOSCIENCES, INC., priority 2021, published 2025).

Bounds are passed on as bounds.

What all share (test): Inhibition test on activity of DYRK family, mobility shift assay (MSA)
What all share (format): biochemical

In one assay the target is T1, DYRK1A (Homo sapiens, UniProt Q13627).
T1 construct: purchased Carna Biosciences, Inc. 04-130
Particulars: ATP 100 μM; FITC-labeled DYRKtide peptide substrate; room temperature 1 hour; read-out: Inhibitory Activity DYRK1A (IC50 class). The procedure: (§1) The kinase activity was measured by mobility shift assay (MSA) method using QuickScout Screening Assist™ MSA (commercially available kit manufactured by Carna Biosciences, Inc.). The substrate of the kinase reaction used was an FITC-labeled DYRKtide peptide included in the kit. An assay buffer [20 mM HEPES, 0.01% Triton X-100™, 2 mM dithiothreitol, pH 7.5] was used to create a substrate mixture solution with a substrate (4 μM), MgCl2 (20 mM), and ATP (DYRK1A: 100 μM; DYRKIB: 200 μM; DYRK2:40 μM; and DYRK3:20 μM). In addition, kinases (DYRK1A: manufactured by Carna Biosciences, Inc., Cat. No. 04-130; DYRK1B: manufactured by Carna Biosciences, Inc., Cat. No. 04-131; DYRK2; manufactured by Carna Biosciences, Inc., Cat. No. 04-132; and DYRK3; manufactured by Carna Biosciences, Inc., Cat. No. 04-133) were diluted with the assay buffer to prepare enzyme solutions (DYRK1A: 0.2 ng/μL; DYRK1B: 0.08 ng/μL; DYRK2: 0.04 ng/μL; and DYRK3:0.25 ng/μL). The 10 mM solution of the test compound in DMSO was further diluted with DMSO to 10 levels of the concentration (0.00003 mM, 0.0001 mM, 0.0003 mM, 0.001 mM, 0.003 mM, 0.01 mM, 0.03 mM, 0.1 mM, 0.3 mM, and 1 mM), each of which was subjected to 25-fold dilution with the assay buffer to obtain a drug solution (4% DMSO solution). 5 μL of the drug solution or a control solution (4% DMSO-assay buffer), 5 μL of the substrate mixture solution, and 10 μL of the enzyme solution were mixed in the wells of a polypropylene 384-well plate and allowed to react at room temperature for 1 hour, and then the reaction was quenched by adding 60 μL of the termination buffer included in the kit. Subsequently, the quantities of the substrates(S) and the phosphorylated substrate (P) in the reaction solution were measured using LabChip EZ Reader II system (manufactured by Caliper Life Sciences) according to the protocol of the assay kit.
(§2) The heights of the peaks of the “substrate” and the “phosphorylated substrate” were expressed as S and P, respectively, and a blank containing the assay buffer instead of the enzyme solution was also measured.
(§3) The inhibition rate (%) of the test compound was calculated according to the following equation: […]
(§4) wherein, A, B, and C represent P/(P+S) of the blank well, P/(P+S) of the control solution well, and P/(P+S) of the compound-containing well, respectively.
(§5) The IC50 value was calculated via a regression analysis of the inhibition rate and the test compound concentration (logarithmic value).

The target in the next assay is T2, DYRK2 (Homo sapiens, UniProt Q92630).
T2 construct: purchased Carna Biosciences, Inc. 04-132
T2 sequence (Q92630 1-601): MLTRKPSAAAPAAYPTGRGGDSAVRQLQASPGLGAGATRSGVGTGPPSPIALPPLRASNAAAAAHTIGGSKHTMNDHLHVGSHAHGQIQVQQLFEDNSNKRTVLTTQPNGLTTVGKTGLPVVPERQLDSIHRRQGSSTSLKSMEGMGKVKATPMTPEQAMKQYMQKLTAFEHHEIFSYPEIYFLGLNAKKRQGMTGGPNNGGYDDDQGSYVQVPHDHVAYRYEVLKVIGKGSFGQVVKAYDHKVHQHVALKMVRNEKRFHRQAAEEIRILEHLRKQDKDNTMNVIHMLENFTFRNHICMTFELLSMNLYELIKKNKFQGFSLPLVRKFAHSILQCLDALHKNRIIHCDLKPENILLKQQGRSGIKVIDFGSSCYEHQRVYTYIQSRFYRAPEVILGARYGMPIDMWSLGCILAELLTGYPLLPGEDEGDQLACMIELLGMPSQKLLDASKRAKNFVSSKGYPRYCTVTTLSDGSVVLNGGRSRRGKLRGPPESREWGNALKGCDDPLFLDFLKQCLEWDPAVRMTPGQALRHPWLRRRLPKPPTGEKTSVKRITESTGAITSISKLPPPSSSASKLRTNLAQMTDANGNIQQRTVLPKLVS
The conditions noted are these: ATP 40 μM; FITC-labeled DYRKtide peptide substrate; room temperature 1 hour; read-out: Inhibitory Activity DYRK2 (IC50 class). As to the method:
as §1, §2, §3, §4, §5

In another assay the target is T3, DYRK3 (Homo sapiens, UniProt O43781).
T3 construct: purchased Carna Biosciences, Inc. 04-133
T3 sequence (O43781 1-588): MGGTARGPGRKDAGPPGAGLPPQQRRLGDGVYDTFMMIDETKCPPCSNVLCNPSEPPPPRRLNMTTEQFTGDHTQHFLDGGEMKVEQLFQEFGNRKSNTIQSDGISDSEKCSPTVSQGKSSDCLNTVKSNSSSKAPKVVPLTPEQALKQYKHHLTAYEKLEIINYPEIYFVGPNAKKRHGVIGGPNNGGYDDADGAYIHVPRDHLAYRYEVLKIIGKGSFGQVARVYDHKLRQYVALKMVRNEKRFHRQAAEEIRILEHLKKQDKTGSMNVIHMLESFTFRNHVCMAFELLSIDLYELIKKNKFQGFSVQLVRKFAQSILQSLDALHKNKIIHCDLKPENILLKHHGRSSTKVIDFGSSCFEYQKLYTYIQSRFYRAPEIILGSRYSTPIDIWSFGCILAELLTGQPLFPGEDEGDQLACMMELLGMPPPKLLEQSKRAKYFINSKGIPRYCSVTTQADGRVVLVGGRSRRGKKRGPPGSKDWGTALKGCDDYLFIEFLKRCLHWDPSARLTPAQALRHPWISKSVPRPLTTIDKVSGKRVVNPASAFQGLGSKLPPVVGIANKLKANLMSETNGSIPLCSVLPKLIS
Particulars: ATP 20 μM; FITC-labeled DYRKtide peptide substrate; room temperature 1 hour; read-out: Inhibitory Activity DYRK3 (IC50 class). As to the method:
as §1, §2, §3, §4, §5

As for `CC#CC1CCNC(=O)N1c1nc2c3c(ccc2s1)OCCO3` (racemic) [Example 1, (RS)-1-(7,8-dihydro-[1,4]dioxino[2′,3′:5,6]benzo[1,2-d]thiazol-2-yl)-6-(prop-1-yn-1-yl)tetrahydropyrimidin-2(1H)-one], the values for the IC50 at DYRK1A, on DYRK2 and on DYRK3 were < 10 nM, > 1000 nM and > 1000 nM, respectively.
On to `CC#CC1N(c2nc3c4c(ccc3s2)OCC4)C(=O)NC12CC2` (racemic) [Example 2, (RS)-6-(7,8-dihydrobenzofuro[4,5-d]thiazol-2-yl)-7-(prop-1-yn-1-yl)-4,6-diazaspiro[2.4]heptan-5-one], for which the half-inhibitory concentration (IC50) was < 10 nM at DYRK1A, 100 to 1000 nM on DYRK2 and 100 to 1000 nM at DYRK3.
As to `CC#CC1CCNC(=O)N1c1nc2c3c(ccc2s1)OCC3` (racemic) [Example 3, (RS)-3-(7,8-dihydrobenzofuro[4,5-d]thiazol-2-yl)-4-(prop-1-yn-1-yl)-tetrahydropyrimidin-2(1H)-one], the values for the IC50 on DYRK1A, at DYRK2 and at DYRK3 were < 10 nM, 100 to 1000 nM and 100 to 1000 nM, respectively.
As for `CC#CC1N(c2nc3c4c(ccc3s2)OCCO4)C(=O)NC12CC2` (racemic) [Example 4, (RS)-6-(7,8-dihydro-[1,4]dioxyno[2′,3′:5,6]benzo[1,2-d]thiazol-2-yl)-7-(prop-1-yn-1-yl)-4,6-diazaspiro[2.4]heptan-5-one], the IC50 at DYRK2 and at DYRK3 was 100 to 1000 nM in each case.
In the case of `CC#CC1N(c2nc3c4c(ccc3s2)OCC4)C(=O)NC12COC2` (racemic) [Example 9, (RS)-7-(7,8-dihydro-benzofuro[4,5-d]thiazol-2-yl)-8-(prop-1-yn-1-yl)-2-oxa-5,7-diazaspiro[3.4]octan-6-one], the IC50 on DYRK1A is 10 to 100 nM; on DYRK2 it was > 1000 nM; on DYRK3 it was 100 to 1000 nM.
For `CC#CC1CCNC(=O)N1c1nc2c3c(ccc2s1)OCCO3` (single isomer, unassigned) [Example 6, 1-(7,8-dihydro-[1,4]dioxyno[2′,3′:5,6]benzo[1,2-d]thiazol-2-yl)-6-(prop-1-yn-1-yl)tetrahydropyrimidin-2(1H)-one], in that order: 100 to 1000 nM, > 1000 nM and > 1000 nM.
For the compound `CC#CC1N(c2nc3c4c(ccc3s2)OCCO4)C(=O)NC12CC2` (single isomer, unassigned) [Example 8, 6-(7,8-dihydro-[1,4]dioxyno[2′,3′:5,6]benzo[1,2-d]thiazol-2-yl)-7-(prop-1-yn-1-yl)-4,6-diazaspiro[2.4]heptan-5-one], the IC50 on DYRK2 and on DYRK3 was > 1000 nM throughout.
On to `CC#CC1N(c2nc3c4c(ccc3s2)OCC4)C(=O)NC12CCCC2` (single isomer, unassigned) [Example 22, 3-(7,8-dihydrobenzofuro[4,5-d]thiazol-2-yl)-4-(prop-1-yn-1-yl)-1,3-diazaspiro[4.4]nonan-2-one], for which the IC50 is > 1000 nM at DYRK2 and 100 to 1000 nM at DYRK3.
Taken in the same sequence, the figures for `CC#CC1N(c2nc3c4c(ccc3s2)OCC4)C(=O)NC12CCCC2` (single isomer, unassigned) [Example 23, 3-(7,8-dihydrobenzofuro[4,5-d]thiazol-2-yl)-4-(prop-1-yn-1-yl)-1,3-diazaspiro[4.4]nonan-2-one] were > 1000 nM and > 1000 nM.
For `CC#C[C@@H]1[C@H](C)CNC(=O)N1c1nc2c3c(ccc2s1)OCC3` (stereo in doubt) [Example 10, (5R*,6S*)-1-(7,8-dihydrobenzofuro[4,5-d]thiazol-2-yl)-5-methyl-6-(prop-1-yn-1-yl)tetrahydropyrimidin-2(1H)-one], in that order: > 1000 nM and > 1000 nM.
In the case of `CC#C[C@@H]1[C@@H](C)CNC(=O)N1c1nc2c3c(ccc2s1)OCC3` (stereo in doubt) [Example 11, (5S*, 6S*)-1-(7,8-dihydrobenzofuro[4,5-d]thiazol-2-yl)-5-methyl-6-(prop-1-yn-1-yl)tetrahydropyrimidin-2(1H)-one], the IC50 at DYRK2 and at DYRK3 was > 1000 nM each time.
